Eight molecules from article PMC10999543, “Identification of kinase modulators as host-directed therapeutics against intracellular methicillin-resistant Staphylococcus aureus” (Frontiers in Cellular and Infection Microbiology, 2024) can be followed below.

Each structure is given as a SMILES string. Where two headings read alike, the source gives them in different places.

One data set deals with HeLa cells. Briefly: Compound screen by flow cytometry: HeLa cell count as surrogate readout of cell viability (z-scoreHeLa). For all read-outs here: test concentration or dose not given here. The following applies: for cell count rep 1 / z-scoreHeLa rep 1: replicate 1; for cell count rep 2 / z-scoreHeLa rep 2: replicate 2; for cell count rep 3 / z-scoreHeLa rep 3: replicate 3; for z-scoreHeLa mean: mean of 3 replicates. The data set is classed as cell-based, human. The method in brief:
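The viability surrogate was the count of fixed HeLa cells by flow cytometry, converted to z-scores against DMSO controls with values deviating two-fold excluded. Before counting, cells had been infected with MRSA for 1 h and cleared of extracellular bacteria with gentamicin. They were then exposed overnight to kinase inhibitors in triplicate.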
(In general: In flow cytometry, cells or beads pass a laser one at a time.)

The test system of the next data set is intracellular MRSA. The data set is classed as cell-based, Staphylococcus aureus. The following applies: for %GFP+ rep 1 / z-scoreMRSA+ rep 1: replicate 1; for %GFP+ rep 2 / z-scoreMRSA+ rep 2: replicate 2; for %GFP+ rep 3 / z-scoreMRSA+ rep 3: replicate 3; for z-scoreMRSA+ mean: mean of 3 replicates. The method in brief: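 Values are z-scores: GFP-positive HeLa percentage and event count per well against plate statistics, minus the mean DMSO z-score. Wells deviating two-fold from controls were left out of plate means. Infection was at a mean MOI of 6.8, with an overnight compound exposure.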 For %GFP+ rep 1: test concentration or dose not given here. For %GFP+ rep 2: test concentration or dose not given here. For %GFP+ rep 3: test concentration or dose not given here. For effect: test concentration or dose not given here. For z-scoreMRSA+ mean: test concentration or dose not given here. For z-scoreMRSA+ rep 1: test concentration or dose not given here. For z-scoreMRSA+ rep 2: test concentration or dose not given here. For z-scoreMRSA+ rep 3: test concentration or dose not given here.

The mark [1] stands for this setting: PKIS compound screen raw data, HeLa cell count.
Where [2] appears, read: PKIS compound screen, HeLa cell count.
The mark [3] stands for this setting: PKIS compound screen, Yes/No call on z-scoreHeLa.
Where [4] appears, read: PKIS compound screen raw data, MRSA-infected HeLa cells.
Setting [5] is: PKIS compound screen, MRSA-infected HeLa cells.
[6] abbreviates: PKIS compound screen, Yes/No call (effect without cell death).
Where [7] appears, read: PKIS compound screen, Yes/No call on z-scoreMRSA+.
[8] abbreviates: PKIS compound screen, Yes/No call.
Setting [9] is: PKIS compounds raw data, HeLa cell count.
Where [10] appears, read: PKIS compounds raw data, MRSA-infected HeLa cells.
Setting [11] is: compound screen, HeLa cell count.
The mark [12] stands for this setting: Yes/No: effect without cell death.
[13] abbreviates: compound screen, MRSA-infected HeLa cells.

With `Fc1ccc(-c2ncn(C3CCNCC3)c2-c2ccnc(Oc3ccc(F)c(F)c3)n2)cc1` [SB-253228], in the data set on HeLa cells (setting [1]), the “cell count rep 1” value is given as 9973, the “cell count rep 2” value came out at 28239 and the “cell count rep 3” value was 36229. Moreover, in the data set with HeLa cells (setting [2]), the z-scoreHeLa mean is -1.15, the “z-scoreHeLa rep 1” value is recorded as -1.54, the “z-scoreHeLa rep 2” value is on record as -1.22 and the “z-scoreHeLa rep 3” value is -0.68. Also, the cell death result in the data set on HeLa cells (setting [3]) is recorded as “No”. Further, in the data set on intracellular MRSA (setting [4]), the “%GFP+ rep 1” value is on record as 13.5%, the “%GFP+ rep 2” value is 14.9% and the “%GFP+ rep 3” value was 15.9%. In the data set on intracellular MRSA (setting [5]), the “z-scoreMRSA+ mean” value is on record as -1.22, the “z-scoreMRSA+ rep 1” value is listed as -1.38, the “z-scoreMRSA+ rep 2” value was -1.09 and the “z-scoreMRSA+ rep 3” value is given as -1.18. Besides, the hit result in the data set on intracellular MRSA (setting [6]) is “No”. In addition, the effect entry with intracellular MRSA (setting [7]) is given as “No”.

Take `COc1ccc(S(=O)(=O)NC2CCN(c3cc(C)nc(Nc4cccc(C#N)c4)n3)CC2)cc1` [GSK1653539A]: in the data set with HeLa cells (setting [1]), the “cell count rep 1” value is 25166, the “cell count rep 2” value amounted to 21326 and the “cell count rep 3” value amounted to 16886. Moreover, in the data set with HeLa cells (setting [2]), the z-scoreHeLa mean was -0.64, the “z-scoreHeLa rep 1” value is listed as -0.85, the “z-scoreHeLa rep 2” value is given as -0.68 and the “z-scoreHeLa rep 3” value is listed as -0.40. Further, in the data set with HeLa cells (setting [8]), the cell death result is “No”. In addition, the cell death result with HeLa cells (setting [3]) is on record as “No”. In addition, in the data set on HeLa cells (PKIS compound screen), the z-scoreHeLa mean is on record as 0.33, the “z-scoreHeLa rep 1” value was found to be 0.22, the “z-scoreHeLa rep 2” value is given as 0.92 and the “z-scoreHeLa rep 3” value was -0.16. In the data set on HeLa cells (setting [9]), the “cell count rep 1” value is 6417, the “cell count rep 2” value is reported as 7400 and the “cell count rep 3” value was 5350. Moreover, in the data set with intracellular MRSA (setting [4]), the “%GFP+ rep 1” value amounted to 17.8%, the “%GFP+ rep 2” value was found to be 20.5% and the “%GFP+ rep 3” value came to 23.1%. In addition, in the data set on intracellular MRSA (setting [5]), the “z-scoreMRSA+ mean” value was 0.18, the “z-scoreMRSA+ rep 1” value is -0.26, the “z-scoreMRSA+ rep 2” value turned out to be 0.30 and the “z-scoreMRSA+ rep 3” value turned out to be 0.51. In addition, the effect result in the data set on intracellular MRSA (setting [8]) is given as “No”. Besides, the hit entry in the data set with intracellular MRSA (setting [6]) is on record as “No”. The effect entry with intracellular MRSA (setting [7]) was “No”. In addition, in the data set on intracellular MRSA (PKIS compound screen), the “z-scoreMRSA+ mean” value is given as 0.99, the “z-scoreMRSA+ rep 1” value was determined as 0.85, the “z-scoreMRSA+ rep 2” value is 0.68 and the “z-scoreMRSA+ rep 3” value stood at 1.43. Besides, in the data set with intracellular MRSA (setting [10]), the “%GFP+ rep 1” value is 31.4%, the “%GFP+ rep 2” value was 29.6% and the “%GFP+ rep 3” value is on record as 35.0%.

As to `COc1cc(Nc2ccnc3ccc(C(F)(F)F)cc23)cc(OC)c1OC` [GW577382X], in the data set on HeLa cells (setting [1]), the “cell count rep 1” value is listed as 2914, the “cell count rep 2” value worked out at 2336 and the “cell count rep 3” value turned out to be 2608. The cell death result in the data set with HeLa cells (Yes/No call from z-scoreHeLa) is listed as “No”. Besides, in the data set on HeLa cells (setting [11]), the z-scoreHeLa mean is -1.40, the “z-scoreHeLa rep 1” value is -1.04, the “z-scoreHeLa rep 2” value is given as -1.51 and the “z-scoreHeLa rep 3” value was -1.66. In addition, in the data set with intracellular MRSA (setting [4]), the “%GFP+ rep 1” value was determined as 19.6%, the “%GFP+ rep 2” value worked out at 17.8% and the “%GFP+ rep 3” value was 18.8%. The effect entry with intracellular MRSA (Yes/No call from z-scoreMRSA+) was “No”. The hit entry with intracellular MRSA (setting [12]) is given as “No”. In the data set with intracellular MRSA (setting [13]), the “z-scoreMRSA+ mean” value is listed as -1.17, the “z-scoreMRSA+ rep 1” value was -1.32, the “z-scoreMRSA+ rep 2” value is -1.17 and the “z-scoreMRSA+ rep 3” value was -1.02.

Consider `Nc1ncc(-c2cccc(S(N)(=O)=O)c2)c2scc(-c3ccc(F)c(Cl)c3)c12` [GW856804X], for which, in the data set on HeLa cells (setting [9]), the “cell count rep 1” value stood at 4238, the “cell count rep 2” value came out at 7246 and the “cell count rep 3” value is 7870. In the data set on HeLa cells (Yes/No call from z-scoreHeLa), the cell death entry was “No”. Further, in the data set on HeLa cells (setting [11]), the z-scoreHeLa mean was 0.73, the “z-scoreHeLa rep 1” value is -0.49, the “z-scoreHeLa rep 2” value is recorded as 2.25 and the “z-scoreHeLa rep 3” value was 0.43. Besides, in the data set with intracellular MRSA (setting [10]), the “%GFP+ rep 1” value is 11.3%, the “%GFP+ rep 2” value came to 12.3% and the “%GFP+ rep 3” value was 12.2%. Further, in the data set with intracellular MRSA (Yes/No call from z-scoreMRSA+), the effect result was “No”. Besides, the hit entry with intracellular MRSA (setting [12]) is on record as “No”. Also, in the data set with intracellular MRSA (setting [13]), the “z-scoreMRSA+ mean” value was -0.70, the “z-scoreMRSA+ rep 1” value is on record as -0.60, the “z-scoreMRSA+ rep 2” value is -0.40 and the “z-scoreMRSA+ rep 3” value was -1.09.

In the case of `Cc1ccc(C(=O)Nc2ccc(Nc3ccnc4cc(-c5ccccn5)ccc34)cc2O)cc1` [GW440146A], in the data set on HeLa cells (setting [1]), the “cell count rep 1” value was found to be 4799, the “cell count rep 2” value came out at 4726 and the “cell count rep 3” value is 6030. Further, the cell death entry in the data set with HeLa cells (Yes/No call from z-scoreHeLa) is listed as “No”. Besides, in the data set on HeLa cells (setting [11]), the z-scoreHeLa mean was determined as 0.38, the “z-scoreHeLa rep 1” value is given as 0.32, the “z-scoreHeLa rep 2” value worked out at 0.33 and the “z-scoreHeLa rep 3” value is listed as 0.50. In addition, in the data set with intracellular MRSA (setting [4]), the “%GFP+ rep 1” value turned out to be 19.0%, the “%GFP+ rep 2” value was found to be 18.0% and the “%GFP+ rep 3” value worked out at 19.2%. Also, in the data set with intracellular MRSA (Yes/No call from z-scoreMRSA+), the effect result is listed as “No”. In the data set on intracellular MRSA (setting [12]), the hit entry was “No”. In addition, in the data set with intracellular MRSA (setting [13]), the “z-scoreMRSA+ mean” value is -1.16, the “z-scoreMRSA+ rep 1” value is -1.46, the “z-scoreMRSA+ rep 2” value is given as -1.12 and the “z-scoreMRSA+ rep 3” value is given as -0.90.

As for `COC(=O)Nc1nc2ccc(Oc3ccc(NC(=O)Nc4cc(C(F)(F)F)ccc4F)cc3)cc2n1C` [GW692089A], in the data set with HeLa cells (setting [1]), the “cell count rep 1” value is 28483, the “cell count rep 2” value was found to be 25969 and the “cell count rep 3” value is recorded as 19864. Also, in the data set on HeLa cells (setting [2]), the z-scoreHeLa mean came out at 0.00395, the “z-scoreHeLa rep 1” value is -0.29, the “z-scoreHeLa rep 2” value came out at 0.12 and the “z-scoreHeLa rep 3” value is recorded as 0.18. Besides, the cell death result in the data set on HeLa cells (setting [3]) is “No”. For the same molecule, in the data set on intracellular MRSA (setting [4]), the “%GFP+ rep 1” value is 16.9%, the “%GFP+ rep 2” value was 18.4% and the “%GFP+ rep 3” value was 19.6%. Further, in the data set with intracellular MRSA (setting [5]), the “z-scoreMRSA+ mean” value is reported as -0.41, the “z-scoreMRSA+ rep 1” value is -0.50, the “z-scoreMRSA+ rep 2” value is on record as -0.28 and the “z-scoreMRSA+ rep 3” value is -0.45. For the same molecule, in the data set with intracellular MRSA (setting [6]), the hit entry was “No”. Further, the effect entry in the data set with intracellular MRSA (setting [7]) is recorded as “No”.

As to `NCCCC(NC(=O)c1cc(Br)c(-c2ccnc3[nH]ccc23)s1)c1ccccc1` (centres unmarked) [GSK1287544A], in the data set on HeLa cells (setting [1]), the “cell count rep 1” value was determined as 6296, the “cell count rep 2” value was determined as 6004 and the “cell count rep 3” value was found to be 7754. Moreover, the cell death entry in the data set with HeLa cells (Yes/No call from z-scoreHeLa) is reported as “No”. Further, in the data set with HeLa cells (setting [11]), the z-scoreHeLa mean came out at 1.43, the “z-scoreHeLa rep 1” value is 1.40, the “z-scoreHeLa rep 2” value was 1.31 and the “z-scoreHeLa rep 3” value was found to be 1.59. In addition, in the data set on intracellular MRSA (setting [4]), the “%GFP+ rep 1” value is 26.9%, the “%GFP+ rep 2” value is recorded as 27.6% and the “%GFP+ rep 3” value is reported as 25.5%. For the same molecule, in the data set on intracellular MRSA (Yes/No call from z-scoreMRSA+), the effect entry is recorded as “No”. Also, the hit entry in the data set on intracellular MRSA (setting [12]) was “No”. Also, in the data set on intracellular MRSA (setting [13]), the “z-scoreMRSA+ mean” value is 0.86, the “z-scoreMRSA+ rep 1” value was 0.38, the “z-scoreMRSA+ rep 2” value is 1.21 and the “z-scoreMRSA+ rep 3” value is 0.99.

With `CN1CCC(n2cnc(-c3ccc(F)cc3)c2-c2ccnc(Nc3ccccc3)n2)CC1` [SB-236687], in the data set with HeLa cells (setting [1]), the “cell count rep 1” value stood at 21592, the “cell count rep 2” value amounted to 24622 and the “cell count rep 3” value came to 40771. Moreover, in the data set on HeLa cells (setting [2]), the z-scoreHeLa mean is listed as -0.54, the “z-scoreHeLa rep 1” value is 0.22, the “z-scoreHeLa rep 2” value is -1.90 and the “z-scoreHeLa rep 3” value came out at 0.04. In the data set with HeLa cells (setting [3]), the cell death result is “No”. Also, in the data set with intracellular MRSA (setting [4]), the “%GFP+ rep 1” value is on record as 10.0%, the “%GFP+ rep 2” value is listed as 12.2% and the “%GFP+ rep 3” value stood at 12.7%. Besides, in the data set with intracellular MRSA (setting [5]), the “z-scoreMRSA+ mean” value is reported as -2.18, the “z-scoreMRSA+ rep 1” value is reported as -2.49, the “z-scoreMRSA+ rep 2” value is -1.90 and the “z-scoreMRSA+ rep 3” value is reported as -2.16. In the data set on intracellular MRSA (setting [6]), the hit result is “Yes”. In the data set with intracellular MRSA (setting [7]), the effect entry is recorded as “Yes”.
